Experimental data reported in US12502386B2, “Nitrogen-containing heterocyclic compound and use thereof” (SHANGHAI SHIJIANG BIOTECHNOLOGY CO., LTD, priority 2022, dated 2025).
Like-named read-outs stand apart in the source and are kept apart here.

Tests used:
Format in all cases: cell-based, human
[1] = system: ov-NNMT NCI-H82 cell; assay: CellTiter-Glo cell viability, ov-NNMT NCI-H82 cell (NNMT overexpressed); conditions: intracellular ATP, read-out: inhibitory effect on OV-NNMT NCI-H82 (IC50)
[2] = system: Con-NCI-H82 cell; assay: CellTiter-Glo cell viability, Con-NCI-H82 cell (empty-vector control); conditions: intracellular ATP, read-out: inhibitory effect on Con-NCI-H82 (IC50)
[3] = system: sh-DNMT1 NCI-H82 cell; assay: CellTiter-Glo cell viability, sh-DNMT1 NCI-H82 cell (DNMT1 knocked down); conditions: intracellular ATP, read-out: inhibitory effect on sh-DNMT1 NCI-H82 (IC50)
[4] = Homo sapiens, NCI-H82, NCI-H82 overexpressing NNMT protein
[5] = Homo sapiens, NCI-H82, NCI-H82 transfected with empty virus vector (control)
[6] = Homo sapiens, NCI-H82, NCI-H82 with DNMT1 knocked down by shRNA

| SMILES | IC50 [1, 4] | IC50 [2, 5] | IC50 [3, 6] | IC50 ([1]; NCI-H82 overexpressing NNMT protein) | IC50 ([2]; NCI-H82 transfected with empty virus vector (control)) | IC50 ([3]; NCI-H82 with DNMT1 knocked down by shRNA) |
| --- | --- | --- | --- | --- | --- | --- |
| CCCCCCC1=C2c3cc4c(cc3CCN2C(C2CCCC2)c2c1ccc(OC)c2OC)OCO4 (stereo not drawn) [AB35489] | 3.78 µM | 0.82 µM | 3.56 µM | – | – | – |
| COc1ccc2c(c1OCCCCl)C(C1CCC1)N1CCc3cc4c(cc3C1=C2)OCO4 (stereo not drawn) [AB35490] | 7.52 µM | 2.68 µM | 8.46 µM | – | – | – |
| COc1ccc2c(c1OCCCCl)C(C1CCCCC1)N1CCc3cc4c(cc3C1=C2)OCO4 (stereo not drawn) [AB35491] | 6.86 µM | 2.22 µM | 6.54 µM | – | – | – |
| CCCC1=C2c3cc4c(cc3CCN2C(C(Cl)(Cl)Cl)c2c1ccc(OC)c2OC)OCO4 (stereo not drawn) [AB35492] | 4.56 µM | 1.46 µM | 4.44 µM | – | – | – |
| COc1ccc2c(c1OCCCCCl)C(C(Cl)(Cl)Cl)N1CCc3cc4c(cc3C1=C2)OCO4 (stereo not drawn) [AB35496] | 6.32 µM | 2.92 µM | 8.24 µM | – | – | – |
| CCCCCCCCC1=C2c3cc4c(cc3CCN2C(C(Cl)(Cl)Cl)c2c1ccc(OC)c2OC)OCO4 (stereo not drawn) [AB35497] | 3.56 µM | 1.25 µM | 5.68 µM | – | – | – |
| COc1ccc2c(c1OC)C(C)N1CCc3cc4c(cc3C1=C2CCc1ccccc1)OCO4 (stereo not drawn) [AB35498] | 4.12 µM | 1.28 µM | 4.38 µM | – | – | – |
| CCOc1c(OC)ccc2c1C(C(Cl)(Cl)Cl)N1CCc3cc4c(cc3C1=C2)OCO4 (stereo not drawn) [AB35499] | 6.96 µM | 2.16 µM | 6.52 µM | – | – | – |
| CCCCC1=C2c3cc4c(cc3CCN2C(C(Cl)(Cl)Cl)c2c1ccc(OC)c2OC)OCO4 (stereo not drawn) [AB35502] | 7.18 µM | 2.93 µM | 7.02 µM | – | – | – |
| COc1ccc2c(c1N1CCN(C)CC1)C(C(Cl)(Cl)Cl)N1CCc3cc4c(cc3C1=C2)OCO4 (stereo not drawn) [AB35518] | 10.1 µM | 3.52 µM | 13.3 µM | – | – | – |
| COc1ccc2c(c1N1CCN(C)CC1)C(C1CCCC1)N1CCc3cc4c(cc3C1=C2)OCO4 (stereo not drawn) [AB35519] | 5.68 µM | 2.19 µM | 4.68 µM | – | – | – |
| CCCCCC1=C2c3cc4c(cc3CCN2C(C2CCCC2)c2c1ccc(OC)c2OC)OCO4 (stereo not drawn) [AB35522] | 3.68 µM | 1.36 µM | 5.64 µM | – | – | – |
| COc1ccc2c(c1OC)C(C(Cl)(Cl)Cl)N1CCc3cc4c(cc3C1=C2CCCCCCCl)OCO4 (stereo not drawn) [AB35524] | 4.32 µM | 1.34 µM | 4.02 µM | – | – | – |
| COc1ccc2c(c1N1CCC(Cl)CC1)CN1CCc3cc4c(cc3C1=C2)OCCO4 [AB35550] | 4.69 µM | 2.12 µM | 4.58 µM | – | – | – |
| CCOc1c(OC)ccc2c1CN1CCc3cc4c(cc3C1=C2)OCO4 [AB35594] | 4.12 µM | 1.26 µM | 3.98 µM | – | – | – |
| CCC1=C2c3cc4c(cc3CCN2C(C(Cl)(Cl)Cl)c2c1ccc1c2OCO1)OCO4 (stereo not drawn) [AB36426] | 18.1 µM | 18.6 µM | 18.8 µM | – | – | – |
| CCCC1=C2c3cc4c(cc3CCN2C(C(Cl)(Cl)Cl)c2c1ccc1c2OCO1)OCO4 (stereo not drawn) [AB36427] | 7.56 µM | 3.28 µM | 6.98 µM | – | – | – |
| CCCC1=C2c3cc4c(cc3CCN2C(C2CCCC2)c2c1ccc1c2OCO1)OCO4 (stereo not drawn) [AB36432] | 3.68 µM | 1.26 µM | 4.46 µM | – | – | – |
| CC1=C2c3cc4c(cc3CCN2C(C(Cl)(Cl)Cl)c2c1ccc1c2OCO1)OCO4 (stereo not drawn) [AB36442] | 13.3 µM | 15 µM | 14.1 µM | – | – | – |
| COc1ccc2c(c1Cl)CN1CCc3cc4c(cc3C1=C2)OCO4 [AB36450] | 5.32 µM | 2.08 µM | 8.34 µM | – | – | – |
| COc1ccc2c(c1OC)C(c1ccccc1)N1CCc3cc4c(cc3C1=C2)OCO4 (stereo not drawn) [AB36467] | 9.32 µM | 3.92 µM | 13.1 µM | – | – | – |
| COc1ccc2c(c1OC)C(CC(C)=O)N1CCc3cc4c(cc3C1=C2)OCO4 (stereo not drawn) [AB36472] | 4.32 µM | 4.28 µM | 4.11 µM | – | – | – |
| COc1c(OCCCCl)ccc2c1C(C1CCCC1)N1CCc3cc4c(cc3C1=C2)OCO4 (stereo not drawn) [AB36474] | 4.12 µM | 1.33 µM | 6.08 µM | – | – | – |
| [2H]C1([2H])Cc2cc3c(cc2C2=Cc4ccc(OC)c(OC)c4CN21)OCO3 [AB36476] | 4.86 µM | 1.24 µM | 7.34 µM | – | – | – |
| [2H]C1c2c(ccc(OC)c2OC)C=C2c3cc4c(cc3CC([2H])([2H])N21)OCO4 (stereo not drawn) [AB36477] | 5.68 µM | 1.22 µM | 8.82 µM | – | – | – |
| COc1ccc2c(c1OC)C(c1ccncc1)N1CCc3cc4c(cc3C1=C2)OCO4 (stereo not drawn) [AB36488] | 8.06 µM | 8.23 µM | 7.83 µM | – | – | – |
| COc1ccc2cc3n(c(=O)c2c1OC)CCc1cc2c(cc1-3)OCO2 [AB36496] | 10.1 µM | 12.9 µM | 12.6 µM | – | – | – |
| COc1ccc2c(c1OC)C(C1CCCC1)N1CCc3cc4c(cc3C1=C2)OCO4 (stereo not drawn) [AB36497] | – | – | – | 18.3 µM | 19.9 µM | 17 µM |
| COc1ccc2c(c1OC)C(=C(Cl)Cl)N1CCc3cc4c(cc3C1=C2)OCO4 [AB36512] | 4.08 µM | 4.36 µM | 3.96 µM | – | – | – |

More lines, in order of falling IC50 [1, 4], values ahead:

| IC50 [1, 4] | IC50 [2, 5] | IC50 [3, 6] | SMILES | IC50 ([1]; NCI-H82 overexpressing NNMT protein) | IC50 ([2]; NCI-H82 transfected with empty virus vector (control)) | IC50 ([3]; NCI-H82 with DNMT1 knocked down by shRNA) |
| --- | --- | --- | --- | --- | --- | --- |
| 3.55 µM | 0.92 µM | 3.98 µM | COc1ccc2c(c1OCc1ccccc1-c1ccccc1)C(C(Cl)(Cl)Cl)N1CCc3cc4c(cc3C1=C2)OCO4 (stereo not drawn) [AB35531] | – | – | – |
| 3.53 µM | 3.86 µM | 3.96 µM | COc1ccc2c(c1OC)C(C1CCCCC1=O)N1CCc3cc4c(cc3C1=C2)OCO4 (stereo not drawn) [AB36525] | – | – | – |
| 3.44 µM | 1.08 µM | 4.51 µM | CCCC1c2c(ccc3c2OCO3)C=C2c3cc4c(cc3CCN21)OCO4 (stereo not drawn) [AB36416] | – | – | – |
| 3.44 µM | 0.92 µM | 3.24 µM | COc1ccc2c(c1OC)CN1CCc3cc4c(cc3C1=C2)OCCO4 [AB36463] | – | – | – |
| 3.43 µM | 1.38 µM | 6.42 µM | COc1ccc2c(c1OCCF)CN1CCc3cc4c(cc3C1=C2)OCO4 [AB35599] | – | – | – |
| 3.33 µM | 1.06 µM | 4.58 µM | COc1ccc2c(c1Br)CN1CCc3cc4c(cc3C1=C2)OCO4 [AB36460] | – | – | – |
| 3.12 µM | 0.74 µM | 2.98 µM | CCCCCCC1=C2c3cc4c(cc3CCN2C(C(Cl)(Cl)Cl)c2c1ccc(OC)c2OC)OCO4 (stereo not drawn) [AB35508] | – | – | – |
| 2.99 µM | 1.02 µM | 2.86 µM | COc1ccc2c(c1OC)C(C1CCCC1)N1CCc3cc4c(cc3C1=C2CCCCCCBr)OCO4 (stereo not drawn) [AB35523] | – | – | – |
| 2.98 µM | 1.11 µM | 2.88 µM | COc1ccc2c(c1OC)C(C1CCCC1)N1CCc3cc4c(cc3C1=C2CCCCCCCl)OCO4 (stereo not drawn) [AB35500] | – | – | – |
| 2.56 µM | 0.88 µM | 3.64 µM | [2H]C1c2c(ccc(OC)c2OC)C=C2c3cc4c(cc3CCN21)OCO4 (stereo not drawn) [AB36415] | – | – | – |
| 2.56 µM | 1.02 µM | 3.68 µM | [2H]C1([2H])c2c(ccc(OC)c2OC)C=C2c3cc4c(cc3CCN21)OCO4 [AB36434] | – | – | – |
| 2.42 µM | 2.56 µM | 2.62 µM | COc1ccc2c(c1OC)C(n1cccc1)N1CCc3cc4c(cc3C1=C2)OCO4 (stereo not drawn) [AB36520] | – | – | – |
| 2.32 µM | 0.61 µM | 3.14 µM | CCC(CC)COc1c(OC)ccc2c1C(C(Cl)(Cl)Cl)N1CCc3cc4c(cc3C1=C2)OCO4 (stereo not drawn) [AB35521] | – | – | – |
| 2.14 µM | 0.52 µM | 3.36 µM | CCCCCOc1c(OC)ccc2c1C(C(Cl)(Cl)Cl)N1CCc3cc4c(cc3C1=C2)OCO4 (stereo not drawn) [AB35505] | – | – | – |
| 2.12 µM | 0.43 µM | 1.96 µM | CCCCOc1c(OC)ccc2c1C(C(Cl)(Cl)Cl)N1CCc3cc4c(cc3C1=C2)OCO4 (stereo not drawn) [AB35494] | – | – | – |
| 2.12 µM | 0.87 µM | 2.56 µM | COc1ccc2c(c1OC)C(C(Cl)(Cl)Cl)N1CCc3cc4c(cc3C1=C2CCCCCCBr)OCO4 (stereo not drawn) [AB35501] | – | – | – |
| 1.95 µM | 0.54 µM | 3.01 µM | CCCCCC1c2c(ccc3c2OCO3)C=C2c3cc4c(cc3CCN21)OCO4 (stereo not drawn) [AB36433] | – | – | – |
| 1.68 µM | 0.51 µM | 2.58 µM | [2H]C([2H])([2H])Oc1c(OC)ccc2c1C([2H])(C1CCCC1)N1CCc3cc4c(cc3C1=C2)OCO4 (stereo not drawn) [AB36509] | – | – | – |
| 1.58 µM | 0.29 µM | 1.98 µM | COc1ccc2c(c1N1CCCCCC1)CN1CCc3cc4c(cc3C1=C2)OCO4 [AB36493] | – | – | – |
| 1.54 µM | 0.38 µM | 1.46 µM | COc1ccc2c(c1OCCBr)CN1CCc3cc4c(cc3C1=C2)OCO4 [AB36403] | – | – | – |
| 1.53 µM | 0.68 µM | 2.07 µM | COc1ccc2c(c1OC)C(C)N1CCc3cc4c(cc3C1=C2CCCc1ccccc1)OCCO4 (stereo not drawn) [AB35493] | – | – | – |
| 1.44 µM | 0.45 µM | 2.29 µM | C1=C2c3cc4c(cc3CCN2Cc2cc3c(cc21)OCO3)OCO4 [AB36428] | – | – | – |
| 1.36 µM | 0.37 µM | 1.98 µM | COc1ccc2c(c1N1CCC(C(F)(F)F)CC1)C(C(Cl)(Cl)Cl)N1CCc3cc4c(cc3C1=C2)OCO4 (stereo not drawn) [AB35514] | – | – | – |
| 1.33 µM | 0.14 µM | 1.56 µM | COc1ccc2c(c1N1CCC(C)CC1)CN1CCc3cc4c(cc3C1=C2)OCCO4 [AB35545] | – | – | – |
| 1.21 µM | 0.22 µM | 1.32 µM | COc1ccc2c(c1OCCCCc1ccccc1)C(C(Cl)(Cl)Cl)N1CCc3cc4c(cc3C1=C2)OCO4 (stereo not drawn) [AB35535] | – | – | – |
| 1.02 µM | 0.28 µM | 2.04 µM | COc1ccc2c(c1OCCCBr)CN1CCc3cc4c(cc3C1=C2)OCO4 [AB35544] | – | – | – |
